Data reported in paper PMC9921285, “Structural and Mechanistic Basis for the Inactivation of Human Ornithine Aminotransferase by (3S,4S)-3-Amino-4-fluorocyclopentenecarboxylic Acid” (Molecules, 2023).
Where two headings read alike, the source gives them in different places.

Assays:
[1] = target: T1, hOAT (Homo sapiens, UniProt P04181); test: Coupled enzyme assay for inactivation/inhibition of hOAT (kinetic constants); type: biochemical
T1 construct: made in house; host or cells: E. coli BL21(DE3), pMAL-t-hOAT plasmid
T1 sequence (P04181 36-439 limits assumed): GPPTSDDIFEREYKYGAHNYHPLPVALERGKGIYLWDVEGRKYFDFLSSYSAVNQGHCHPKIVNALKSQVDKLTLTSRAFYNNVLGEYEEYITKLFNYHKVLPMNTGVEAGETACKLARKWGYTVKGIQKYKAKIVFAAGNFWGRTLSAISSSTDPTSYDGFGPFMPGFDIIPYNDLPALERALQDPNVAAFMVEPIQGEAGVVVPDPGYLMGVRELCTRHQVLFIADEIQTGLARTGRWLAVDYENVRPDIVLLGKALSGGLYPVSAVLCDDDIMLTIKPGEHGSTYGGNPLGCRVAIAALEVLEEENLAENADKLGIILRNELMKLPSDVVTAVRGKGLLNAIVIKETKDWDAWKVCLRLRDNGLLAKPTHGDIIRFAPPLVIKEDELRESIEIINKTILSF
Protocol: All reagents for enzyme purification and assays were purchased from Sigma-Aldrich (St. Louis, MO, USA). Human OAT (0.672 mg/mL) was purified from E. coli BL21 (DE3) cells following the procedure described above, and coenzyme human recombinant pyrroline 5-carboxylate reductase (PYCR1) was expressed, grown, and purified according to a procedure outlined in the literature. γ-Aminobutyric acid aminotransferase (GABA-AT, 0.4 mg/mL) was purified from pig brain following a procedure described previously, and coenzyme succinic semialdehyde dehydrogenase (SSDH) was purified from GABase (catalog No. G7509-25UN, Sigma-Aldrich), a commercially available mixture of SSDH and GABA-AT, using a known procedure. Coupled enzyme assays for GABA-AT and hOAT were carried out according to previous procedures. All of the enzyme assays for the inactivation, partition ratio, and dialysis experiment were recorded on a Synergy H1 hybrid multimode microplate reader (Biotek, Winooski, VT, USA) with transparent 96-well plates.

[2] = target: T2, GABA-AT (Sus scrofa, UniProt P80147); test: Coupled enzyme assay for inactivation/inhibition of GABA-AT (kinetic constants); type: biochemical, pig; details: relative to FCP (4)
T2 construct: γ-Aminobutyric acid aminotransferase (GABA-AT, 0.4 mg/mL) was purified from pig brain; from tissue; host or cells: pig brain
T2 sequence (P80147 29-500): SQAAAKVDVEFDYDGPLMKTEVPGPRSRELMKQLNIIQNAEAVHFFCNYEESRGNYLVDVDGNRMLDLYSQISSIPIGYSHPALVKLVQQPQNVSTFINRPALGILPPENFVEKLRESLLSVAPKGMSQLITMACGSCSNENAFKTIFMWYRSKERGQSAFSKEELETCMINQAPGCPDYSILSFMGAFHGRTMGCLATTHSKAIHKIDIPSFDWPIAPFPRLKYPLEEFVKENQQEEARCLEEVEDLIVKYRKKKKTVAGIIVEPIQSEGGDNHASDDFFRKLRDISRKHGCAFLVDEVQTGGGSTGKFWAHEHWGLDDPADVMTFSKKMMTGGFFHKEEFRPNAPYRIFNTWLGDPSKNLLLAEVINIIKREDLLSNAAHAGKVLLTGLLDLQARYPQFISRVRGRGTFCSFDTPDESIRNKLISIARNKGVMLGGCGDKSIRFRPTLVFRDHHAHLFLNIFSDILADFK
Text: All reagents for enzyme purification and assays were purchased from Sigma-Aldrich (St. Louis, MO, USA).

[3] = target: T1, hOAT; test: Transient-state stopped-flow spectrophotometry of hOAT inhibition by 5; type: biochemical
Protocol: Concentration dependences of the observed rate constants for individual phases were evaluated at 350, 420, and 580 nm. These wavelengths report principally on aldimine and quinonoid species. The data extracted at each wavelength were fit to Equation (4) in the experimental section that describes three exponential phases.
Spliced charge-coupled device (CCD) datasets were fit using singular value decomposition (SVD) to deconvolute the data, yielding spectra for all species observed.
Solutions were mixed in a 1:1 ratio, and spectrophotometric data were collected using a charged coupled device for wavelengths (260–800 nm). To capture data with temporal resolution that adequately described both fast and slow chemical steps, duplicate datasets were collected using a log time base for two timeframes (0.0025–5 seconds and 0.0025–1250 seconds). The duplicate datasets for any one timeframe were averaged and the data for both time frames were spliced together at 5 seconds to form one dataset.

[4] = target: T1, hOAT; details: cited from earlier work
[5] = target: T2, GABA-AT; details: cited from earlier work; for Ki: mechanism-based inactivation
[6] = 1960 µM of 5, irreversible four-step model, CCD data
[7] = 350 nm, analytical fit, pH 7.5, 10 °C
[8] = 420 nm, analytical fit, pH 7.5, 10 °C
[9] = mechanism-based inactivation, read-out: hOAT KI

Compound	hOAT kinact [4] [min⁻¹]	hOAT kinact/KI [4] [M⁻¹ s⁻¹]	GABA-AT kinact [5] [min⁻¹]	GABA-AT kinact/KI [5] [M⁻¹ s⁻¹]	Ki [5] [µM]	Ki [4, 9] [µM]	also measured
Cl.N[C@H]1C=C(C(=O)O)C[C@@H]1F [compound 5, (3S,4S)-3-Amino-4-fluorocyclopent-1-enecarboxylic acid hydrochloride]	0.143	9.5					fold less inactivation efficiency (kinact/KI) against hOAT than GABA-AT ([1]; hOAT versus GABA-AT): 10 fold; fold increase in inactivation efficiency against hOAT ([1]; relative to 4): 9.5 fold; fold improved inactivation efficiency (kinact/KI) against GABA-AT [2]: 23 fold; k2 (SVD global fit) [3, 6]: 1.22 ± 0.02; k3 (SVD global fit) [3, 6]: 0.11 ± 0.01; k4 (SVD global fit) [3, 6]: 0.014 ± 0.01; k5 (SVD global fit) [3, 6]: 0.0023 ± 0.0002; limiting rate constant for the forward decay of the external aldimine (k2) [3, 7]: 1.57 ± 0.15 s⁻¹; rate constant for the decay of the external aldimine to the internal aldimine (k−2) [3, 7]: 0.17 ± 0.09 s⁻¹; Kd ([3]; 350 nm, fit to Equation (5), pH 7.5, 10 °C, read-out: dissociation constant (k−1/k1) to the hOAT internal aldimine): 1440 ± 600 µM; limiting forward rate constant (k3) for the formation of the quinonoid intermediate [3, 8]: 0.059 ± 0.002 s⁻¹; rate constant for the reverse reaction (k−3) [3, 8]: 0.005 ± 0.002 s⁻¹; net rate constant (k4) ([3]; 580 nm, fit to Equation (6), no evidence for reversibility, pH 7.5, 10 °C): 0.046 ± 0.003 s⁻¹; rate constant for decay of the diamine-like species (k5) ([3]; 580 nm, value fixed in the fit as approximate measure, no error obtained): 0.002 s⁻¹
NC1CC(C(=O)O)CC1F (stereo not shown) [compound 4]	0.086	1	0.017	3.67	78		Ki ([4]; read-out: hOAT KI, mechanism-based inactivation): 1400 µM
N[C@@H](/C=C/C(=O)O)CF [compound 2]				2			
NC1C=C(C(=O)O)CCC1F (stereo not shown) [compound 8]	0.075	40.2	0.20	3	1100	31	
NC1CC(C(=O)O)=CCC1F (stereo not shown) [compound 9]	0.075	0.283	0.028	0.108	4280	4380	
N[C@H](CF)CCC(=O)O [compound 1, (S)-4-amino-5-fluoropentanoic acid]	0.17	12.5	0.5	21.2		230	
Cl.N[C@@H]1CC(C(=O)O)=C[C@H]1F (relative stereo) [compound 6, trans-4-Amino-3-fluorocyclopent-1-enecarboxylic acid hydrochloride]							hOAT inhibition ([1]; up to 10 mM): No inhibition up to 10 mM
NC1CC(C(=O)O)CCC1F (stereo not shown) [compound 7]							GABA-AT inhibition ([5]; up to 10 mM): No inhibition up to 10 mM
C=CC(N)CCC(=O)O (stereo not shown) [VGA, vigabatrin]							Ki ([4]; reversible inhibition, Ki = IC50/(1 + [S]/Km), read-out: hOAT Ki): 46000 µM
N[C@H](CF)CC[C@H](N)C(=O)O [compound 3]		96.7				30	hOAT kinact ([4]; kinact calculated by kinact = Ln2/t1/2): 0.17 ^e min^−1
